Data published in the METLIN SMRT retention time set (Domingo-Almenara et al. 2019).

Experiment: gradient 5% acetonitrile 3 min, to 50% in 2 min, to 85% in 15 min, held 3 min, 100 µL/min
Details: column: Zorbax Extend-C18 2.1 x 50 mm; eluents: water / acetonitrile, 0.1% formic acid
How it was run: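 Data were gathered over 3 months by HPLC coupled to a quadrupole time-of-flight mass spectrometer, operated in positive and negative ionization mode. Mixtures of ~100 pure standards ran on a Zorbax Extend-C18 column (2.1 × 50 mm, 1.8 μm) at 100 μL/min, with water and acetonitrile each containing 0.1% formic acid and dead and dwell volumes of 40 μL and 900 μL. Retention time was read from adduct peaks picked by computer and checked manually.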

| SMILES | RP-LC retention time [s] |
| --- | --- |
| COc1ccc(Cl)cc1NC(=O)CSc1nnc2c3cc(-c4ccc(C)c(C)c4)nn3ccn12 | 1130 |
| CCCN1C(=O)NC(=O)C2NCNC21 (stereo not drawn) | 604 |
| Cc1ccc(Sc2c(-c3ccccc3)nc3ncccn23)cc1 | 1040 |
| Cc1ccc(CNC(=O)CSCc2nc3cccnc3n2C2CCCCC2)o1 | 877 |
| CCCn1c(C)cnc1C1CN(S(=O)(=O)c2ccc(Cl)cc2)C1 | 678 |
| Cc1noc(-c2ccc(OC3CN(C(=O)NC4CCCC4)C3)cc2)n1 | 801 |
| COc1ccccc1N1CCN(c2ncc3c(n2)CCN(Cc2cccc(F)c2)C3)CC1 | 808 |
| CCN1CCN(c2ncnc3c2cnn3-c2ccccc2Cl)CC1 | 582 |
| CCc1ccc(CNC(=O)C2CCCN(c3nccnc3Sc3ccccc3)C2)cc1 (stereo not drawn) | 1140 |
| COC(=O)c1cnc(N2CCN(C)CC2)c2ccccc12 | 610 |
| COc1cccc(S(=O)(=O)N2CCC(c3cc(N)on3)CC2)c1 | 756 |
| Cc1oc2c(C)c3oc(=O)c(CCC(=O)N4CCN(c5ccccn5)CC4)c(C)c3cc2c1C | 728 |
| CC(C)CN(C[C@@H](O)[C@H](Cc1ccccc1)NC(=O)O[C@H]1CO[C@H]2OCC[C@H]21)S(=O)(=O)c1ccc(N)cc1 | 830 |
| COc1ccc(-c2cn3c(CC(=O)Nc4ccc(F)cc4)csc3n2)cc1OC | 729 |
| COC[C@@H]1CN(S(=O)(=O)c2cccc(F)c2)C[C@H]1c1ccccn1 | 639 |
| CC1(C(=O)NCc2ccc(F)cc2)CN(S(C)(=O)=O)CC(=O)N1CCCc1ccccc1 (stereo not drawn) | 882 |
| CCN(C(=O)C1CCCN(c2ncnc3c2nc2n3CCCCC2)C1)c1cccc(Cl)c1 (stereo not drawn) | 912 |
| CCCn1nc(CNC(=O)c2cccs2)c2ccccc21 | 785 |
| Cc1ccccc1OCC(=O)NC1CCN(Cc2c(C)noc2C)CC1 | 615 |
| COc1ccccc1N1CCN(CCN(C(=O)C2CCCCC2)c2ccccn2)CC1 | 816 |
| Cc1cccc(-c2nc(Cn3nnc(-c4nc(-c5ccncc5)no4)c3C)c(C)o2)c1 | 1070 |
| O=C(Nc1ccc(F)c(Cl)c1)N1CCN(CCn2c(-c3ccncc3)nc3cccnc32)CC1 | 627 |

| SMILES | RP-LC retention time [s] |
| --- | --- |
| O=C(Nc1nc(CC(=O)N2CCn3c2nc2ccccc23)cs1)c1ccsc1 | 657 |
| Cc1ccc(CNC(=O)Cn2nc(C)c3nn(-c4ccccc4)c(-n4cccc4)c3c2=O)o1 | 946 |
| CCOc1ccc(NC(=O)C2CCN(S(=O)(=O)c3ccc4c(c3)NC(=O)C(CC)O4)CC2)cc1 (stereo not drawn) | 888 |
| Cc1noc([C@@H]2CC(F)(F)CN2C(=O)c2ccoc2C)n1 | 756 |
| O=C(NCc1csc(-c2ccccc2)n1)[C@H]1CCCN1C(=O)c1ccc(Br)cc1 | 866 |
| O=C(c1cc(-c2ccc(F)cc2)c[nH]1)N1CCc2ccccc21 | 1000 |
| O=C(Cc1ccc(F)cc1)NCC1CC(=O)N(Cc2ccc(F)cc2)C1 (stereo not drawn) | 871 |
| O=C(Cn1c(=O)c2cc(C3CC3)nn2c2ncccc21)Nc1ccccc1 | 752 |
| Cc1ccc(-c2c(C)noc2C)cc1S(=O)(=O)Nc1ccccc1 | 932 |
| CCOC(=O)c1ccc(NC(=O)COc2ccc(-c3nnc4n3CCCC4)cc2)cc1 | 730 |
| COc1cc2ncc(S(=O)(=O)c3ccc(Cl)cc3)c(N3CCN(C)CC3)c2cc1OC | 634 |
| CC(C)c1ccc(-n2ncc3c(=O)n(Cc4nc(-c5ccc(Cl)cc5)no4)cnc32)cc1 | 1320 |
| O=C1CCCCC1Oc1cc(O)c2c(=O)cc(-c3ccccc3)oc2c1 (stereo not drawn) | 1090 |
| Cc1ccccc1C(=O)CC1(O)C(=O)Nc2ccc(Br)cc21 (stereo not drawn) | 804 |
| CC(C)NC(=O)c1cc(-c2ccc(F)cc2)cn1C | 926 |
| C=CCNC(=O)C1CCCN(C(=O)Nc2ccc(NC(=O)Nc3ccc(CC)cc3)cc2)C1 (stereo not drawn) | 780 |
| CCC(C)NC(=O)c1c2c(cn(-c3ccccc3)c1=O)C(=O)CC(C)(C)C2 (stereo not drawn) | 942 |
| Cn1cccc1Cc1nnc(SCC(=O)N2CCCc3ccccc32)n1C | 767 |
| Cc1cccc(S(=O)(=O)N(C)CC2CCOC2)c1 (stereo not drawn) | 811 |
| O=C(COc1ccc(F)cc1)N1CCC2(CC1)NC(=O)N(Cc1ccc(Cl)cc1)C2=O | 810 |
| Cc1nc(C(=O)NCCc2ccc(Cl)cc2)c(C)n1C1CCN(S(C)(=O)=O)CC1 | 689 |
